According to patent publication US20260364184A1, “COMPOUND BASED ON OXOISOINDOLINYL-SUBSTITUTED TETRAHYDROPYRIMIDINE-DIONE AND USE THEREOF” (GLUETACS THERAPEUTICS (SHANGHAI) CO., LTD., priority 2023, published 2026):

How the values were obtained:
JEKO-1 = experiment: Inhibition of JEKO-1 cell proliferation (CellTiter luminescent viability); assay type: cell-based, human; conditions: Table IA1, IRAK4 inhibitor-based; JEKO-1, 96 hours; read-out: Inhibitory activity (IC50, nM) on tumor cell proliferation, JEKO-1
How it was run: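 Cells are seeded in 96-well plates, cultured at 37 °C, 5% CO2, and treated next day with 5-fold serial compound dilutions (stock series from 2000 μM; 0.5 μL into 100 μL medium). Viability is read by CellTiter-Meiluncell luminescence after the set exposure, and IC50 is taken from growth-inhibition curves.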

[1] = system: Human acute lymphocytic leukemia T lymphocytes cell line (CCRF-CEM); experiment: Inhibition of CCRF-CEM cell proliferation (CellTiter luminescent viability); assay type: cell-based; conditions: Homo sapiens, 96 h, Table IF2, AR inhibitor-based; for inhibition at 0.01 µM: 10 nM, read-out: Inhibition Rate at 10 nM (%); for inhibition at 0.5 µM: 500 nM, read-out: Inhibition Rate at 500 nM (%)

| Compound | IC50 (JEKO-1) [nM] | inhibition at 0.01 µM [1] [%] | inhibition at 0.5 µM [1] [%] |
| --- | --- | --- | --- |
| O=C1CCN(N2Cc3cc(CN4CCC(n5cc(NC(=O)c6coc(-c7ccnc(NCC8CC8)c7)n6)c(C(F)F)n5)CC4)ccc3C2=O)C(=O)N1 [GT-04951, 2-(2-((cyclopropylmethyl)amino)pyridin-4-yl)-N-(3-(difluoromethyl)-1-(1-((2-(2,4-dioxotetrahydropyrimidin-1(2H)-yl)-1-oxoisoindolin-5-yl)methyl)piperidin-4-yl)-1H-pyrazol-4-yl) oxazole-4-carboxamide] | 100 to 300 |  |  |
| N#Cc1ccc(O[C@H]2CC[C@H](NC(=O)c3ccc(N4CCC(CN5CC6CCC5CN6c5ccc6c(c5)C(=O)N(N5CCC(=O)NC5=O)C6=O)CC4)nn3)CC2)cc1Cl (stereo partly drawn) [GT-05832, N-((1r,4r)-4-(3-chloro-4-cyanophenoxy)cyclohexyl)-6-(4-((5-(2-(2,4-dioxotetrahydropyrimidin-1(2H)-yl)-1,3-dioxoisoindolin-5-yl)-2,5-diazabicyclo[2.2.2]octan-2-yl)methyl)piperidin-1-yl)pyridazine-3-carboxamide] |  | -5 to 0 | 30 to 40 |
| O=C1CCN(N2Cc3cc(CN4CCC(n5cc(NC(=O)c6cnn7ccc(N8C[C@H]9C[C@@H]8CO9)nc67)c(C(F)F)n5)CC4)ccc3C2=O)C(=O)N1 [GT-05028, 5-((1R,4R)-2-oxa-5-azabicyclo[2.2.1]heptan-5-yl)-N-(3-(difluoromethyl)-1-(1-((2-(2,4-dioxotetrahydropyrimidin-1(2H)-yl)-1-oxoisoindolin-5-yl)methyl)piperidin-4-yl)-1H-pyrazol-4-yl)pyrazolo[1,5-a]pyrimidine-3-carboxamide] | 300 to 500 |  |  |
| CC1(C)[C@H](NC(=O)c2ccc(N3CCC(CN4CC5CCC4CN5c4ccc5c(c4)C(=O)N(N4CCC(=O)NC4=O)C5=O)CC3)nc2)C(C)(C)[C@H]1Oc1ccc(C#N)c(Cl)c1 (stereo partly drawn) [GT-05834, N-((1r,3r)-3-(3-chloro-4-cyanophenoxy)-2,2,4,4-tetramethylcyclobutyl)-6-(4-((5-(2-(2,4-dioxotetrahydropyrimidin-1(2H)-yl)-1,3-dioxoisoindolin-5-yl)-2,5-diazabicyclo[2.2.2]octan-2-yl)methyl)piperidin-1-yl)nicotinamide] |  | 10 to 15 | 40 to 60 |
